Data taken from the supplement of paper PMC11208160.

test: recombinant UMI read abundance after kanamycin selection (control-corrected) (log10(CPM+1)); higher = more efficient recombination; extreme values may be limits of the assay; sequences stand for … in AGTGCAGAGAAAATCGGCCAGTTTTCTCTGCCTGCAGTCCGCATGCCGTGGGACCCCTTGGGTTCTAACCTGTTGCCTAGATTTATGCAGCGGACTGCCTTTCTCCCAAAGTGATAAACCGG…AGGTTGGTTTCACT; site = the 11-nt donor
Method in brief: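 The measure is log10(CPM+1) for recombinant UMIs. These were PCR-amplified across the donor–target junction and sequenced after Escherichia coli carrying a donor and donor-binding-loop pair library and a target plasmid with T7-inducible IS621 bridge recombinase was plated on IPTG (0.07 mM) plus kanamycin or unselected. CPM were averaged over two replicates and scaled by control-derived factors.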
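Note: IS621 bridge recombinase in Escherichia coli cells against a fixed T5 target plasmid.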

Row | Sequence | recombinant UMI read abundance (log10)
1 | GGACTGGCATGGACCGGTTTTCCCGGTAATCCGTATTTGGT (site GGATTGGCTAC) | 0.0234
2 | GGACTTCCATGGACCGGTTTTCCCGGTAATCCGTATTTGGT (site GGACTTCCTAC) | 1.16
3 | GGAGAGACATGGACCGGTTTTCCCGGTAATCCGTATTTGCC (site GGAAAGACTGG) | 0
4 | GGAGAGACATGGACCGGTTTTCCCGGTAATCCGTATTTGCC (site GGACAGACTGG) | 0
5 | GGAGAGACATGGACCGGTTTTCCCGGTAATCCGTATTTGCC (site GGAGAGACTGG) | 0
6 | GGAGAGACATGGACCGGTTTTCCCGGTAATCCGTATTTGCC (site GGATAGACTGG) | 0
7 | GGAGATTCATGGACCGGTTTTCCCGGTAATCCGTATTTGAC (site GGAGATTCTGT) | 0
8 | GGAGCACCATGGACCGGTTTTCCCGGTAATCCGTATTTGCA (site GGAGCACCTTG) | 0
9 | GGAGCACCATGGACCGGTTTTCCCGGTAATCCGTATTTGCA (site GGCGCACCTTG) | 0
10 | GGAGCACCATGGACCGGTTTTCCCGGTAATCCGTATTTGCA (site GGGGCACCTTG) | 0
11 | GGAGCACCATGGACCGGTTTTCCCGGTAATCCGTATTTGCA (site GGTGCACCTTG) | 0.00599
12 | GGAGCCCCATGGACCGGTTTTCCCGGTAATCCGTATTTGGG (site GGAGCCCCTCC) | 0.00903
13 | GGAGGCCCATGGACCGGTTTTCCCGGTAATCCGTATTTGCC (site GGAGGCCCTGG) | 0
14 | GGAGGTACATGGACCGGTTTTCCCGGTAATCCGTATTTGAC (site GAAGGTACTGT) | 0.759
15 | GGAGGTACATGGACCGGTTTTCCCGGTAATCCGTATTTGAC (site GCAGGTACTGT) | 0.553
16 | GGAGGTACATGGACCGGTTTTCCCGGTAATCCGTATTTGAC (site GGAGGTACTGT) | 1.39
17 | GGAGGTACATGGACCGGTTTTCCCGGTAATCCGTATTTGAC (site GTAGGTACTGT) | 0
18 | GGAGTAGCATGGACCGGTTTTCCCGGTAATCCGTATTTGGT (site GGAGTAGCTAC) | 1.18
19 | GGAGTAGCATGGACCGGTTTTCCCGGTAATCCGTATTTGGT (site GGAGTCGCTAC) | 0.0165

Row | Sequence | recombinant UMI read abundance (log10)
20 | GGAGTAGCATGGACCGGTTTTCCCGGTAATCCGTATTTGGT (site GGAGTGGCTAC) | 0.49
21 | GGAGTAGCATGGACCGGTTTTCCCGGTAATCCGTATTTGGT (site GGAGTTGCTAC) | 0
22 | GGAGTATCATGGACCGGTTTTCCCGGTAATCCGTATTTGAC (site CTAGTATCTGT) | 0
23 | GGAGTATCATGGACCGGTTTTCCCGGTAATCCGTATTTGAC (site GGAGTATCTGT) | 2.66
24 | GGAGTCGCATGGACCGGTTTTCCCGGTAATCCGTATTTGCG (site GAAGTCGCTCG) | 0.00287
25 | GGAGTCGCATGGACCGGTTTTCCCGGTAATCCGTATTTGCG (site GCAGTCGCTCG) | 0.021
26 | GGAGTCGCATGGACCGGTTTTCCCGGTAATCCGTATTTGCG (site GGAGTCGCTCG) | 1.28
27 | GGAGTCGCATGGACCGGTTTTCCCGGTAATCCGTATTTGCG (site GTAGTCGCTCG) | 0.0226
28 | GGAGTCTCATGGACCGGTTTTCCCGGTAATCCGTATTTGTC (site GGAGTCTCTGA) | 2.36
29 | GGAGTGCCATGGACCGGTTTTCCCGGTAATCCGTATTTGGA (site GGAGTGCCTTC) | 0.0188
30 | GGAGTGTCATGGACCGGTTTTCCCGGTAATCCGTATTTGGT (site GGAGTGACTAC) | 0.192
31 | GGAGTGTCATGGACCGGTTTTCCCGGTAATCCGTATTTGGT (site GGAGTGCCTAC) | 0.00939
32 | GGAGTGTCATGGACCGGTTTTCCCGGTAATCCGTATTTGGT (site GGAGTGGCTAC) | 0.0122
33 | GGAGTGTCATGGACCGGTTTTCCCGGTAATCCGTATTTGGT (site GGAGTGTCTAC) | 1.71
34 | GGATAATCATGGACCGGTTTTCCCGGTAATCCGTATTTGAA (site GGATAATCTTT) | 2.84
35 | GGATAGACATGGACCGGTTTTCCCGGTAATCCGTATTTGAC (site GGATAGACTGA) | 0
36 | GGATAGACATGGACCGGTTTTCCCGGTAATCCGTATTTGAC (site GGATAGACTGC) | 0.822
37 | GGATAGACATGGACCGGTTTTCCCGGTAATCCGTATTTGAC (site GGATAGACTGG) | 1.9
38 | GGATAGACATGGACCGGTTTTCCCGGTAATCCGTATTTGAC (site GGATAGACTGT) | 3.21

Row | Sequence | recombinant UMI read abundance (log10)
39 | GGATAGACATGGACCGGTTTTCCCGGTAATCCGTATTTGCC (site AGATAGACTGG) | 2.1
40 | GGATAGACATGGACCGGTTTTCCCGGTAATCCGTATTTGCC (site CGATAGACTGG) | 0.635
41 | GGATAGACATGGACCGGTTTTCCCGGTAATCCGTATTTGCC (site GAATAGACTGG) | 1.5
42 | GGATAGACATGGACCGGTTTTCCCGGTAATCCGTATTTGCC (site GCATAGACTGG) | 2.11
43 | GGATAGACATGGACCGGTTTTCCCGGTAATCCGTATTTGCC (site GGAAAGACTGG) | 0
44 | GGATAGACATGGACCGGTTTTCCCGGTAATCCGTATTTGCC (site GGACAGACTGG) | 2.55
45 | GGATAGACATGGACCGGTTTTCCCGGTAATCCGTATTTGCC (site GGAGAGACTGG) | 0
46 | GGATAGACATGGACCGGTTTTCCCGGTAATCCGTATTTGCC (site GGATAAACTGG) | 2.06
47 | GGATAGACATGGACCGGTTTTCCCGGTAATCCGTATTTGCC (site GGATACACTGG) | 1.54
48 | GGATAGACATGGACCGGTTTTCCCGGTAATCCGTATTTGCC (site GGATAGACTAG) | 0.852
49 | GGATAGACATGGACCGGTTTTCCCGGTAATCCGTATTTGCC (site GGATAGACTCG) | 0.799
50 | GGATAGACATGGACCGGTTTTCCCGGTAATCCGTATTTGCC (site GGATAGACTGA) | 1.38
51 | GGATAGACATGGACCGGTTTTCCCGGTAATCCGTATTTGCC (site GGATAGACTGC) | 0
52 | GGATAGACATGGACCGGTTTTCCCGGTAATCCGTATTTGCC (site GGATAGACTGG) | 2.73
53 | GGATAGACATGGACCGGTTTTCCCGGTAATCCGTATTTGCC (site GGATAGACTGT) | 1.32
54 | GGATAGACATGGACCGGTTTTCCCGGTAATCCGTATTTGCC (site GGATAGACTTG) | 1.75
55 | GGATAGACATGGACCGGTTTTCCCGGTAATCCGTATTTGCC (site GGATAGCCTGG) | 0.943
56 | GGATAGACATGGACCGGTTTTCCCGGTAATCCGTATTTGCC (site GGATAGGCTGG) | 1.98
57 | GGATAGACATGGACCGGTTTTCCCGGTAATCCGTATTTGCC (site GGATAGTCTGG) | 1.62
